This experiment deals with P. aeruginosa 26. The experiment in a line: in vitro Antimicrobial Activity, two-fold agar-plate dilution method (MIC). The format is cell-based. Particulars: Pseudomonas aeruginosa; Test strain P. aeruginosa 26; heart infusion agar; 10^6 viable cells per ml; incubation at 37° C. for 20 hours; read-out: MIC (minimal inhibitory concentration). The method, then: in vitro Antimicrobial Activity
in vitro Antimicrobial Activity was determined by the two-fold agar-plate dilution method as described blow. […]
The product of Example (2-1).

The source of these data is patent publication US4983596A, “3-pyrrolidinylthio-1-azabicyclo[3.2.0]-hept-2-ene-2-carboxylic acid derivatives and their preparation” (Fujisawa Pharmaceutical Company, Ltd., priority 1988, dated 1991).

The structures appear in SMILES notation. In brackets after ≈: the same amount, converted by molar mass.

With `C[C@@H](O)[C@H]1C(=O)N2C(C(=O)O)=C(S[C@@H]3CN[C@H](COCCF)C3)[C@H](C)[C@H]12` [Example (2-1), (4R,5S,6S)-3-[(2S,4S)-2-(2-fluoroethyloxymethyl)pyrrolidin-4-yl]thio-6-[(1R)-1-hydroxyethyl]-4-methyl-7-oxo-1-azabicyclo[3.2.0]hept-2-ene-2-carboxylic acid], the MIC was 0.39 µg/mL (≈ 1 µM).
